Values of other authors as cited in patent US20060083786A1 (Glenmark Pharmaceuticals Limited, priority 2004, published 2006).

Details: in vivo

SMILES: O=C(O)COCCN1CCN([C@H](c2ccccc2)c2ccc(Cl)cc2)CC1 [Levocetirizine]
- side effects on the central nervous system: free from side effects
